Values joined by “and” are separate entries in the source; they are usually repeats but may differ in a detail not shown here. Equal entries are not always repeated.
biological target: human ICMT (Homo sapiens (Human), UniProt O60725); test: ICMT biochemical assay (Methyltransferase-Glo); conditions: ICMT membrane extract from Sf-9 cells; 30 min preincubation, 90 min reaction
Experimental: Recombinant human ICMT was prepared by infection of Sf9 cells with a recombinant baculovirus containing the entire open reading frame of the human ICMT cDNA.
Cells producing ICMT were harvested 66 hours post-infection. The cells are homogenized and resuspended in 5 mM NaHPO4 (pH 7.0), and a cocktail of protease inhibitors. The membrane was pelleted, after removal of nuclei and debris, at 100,000×g for 1 hour. Membranes were resuspended in 5 mM NaHPO4 (pH 7.0) with 5 mM EDTA at 10-12 mg/ml. The suspension was stored at −80° C. in multiple aliquots.
An ICMT enzymatic assay was developed using Promega's Methyltransferase-GloTMreagents. In the assay, ICMT catalyzes the methylation of the N-Acetyl-S-farnesyl-L-cysteine by transferring a methyl group from SAM to the farnesylated cysteine and further converts the SAM to SAH. The methyltransferase activity is measured based on the amount of SAH produced from the reaction through the use of coupling enzymes that convert the SAH to ATP. The MTase-Glo detection solution then catalyzes the formation of light from ATP.
A final concentration of 2.0 μM and 20 μM of SAM and peptide were added and further incubated for 90 minutes at room temperature before adding the MTase Glo and detection reagent. Reaction signals were detected using microplate readers on luminescent mode (Satire Tecan). The IC50 was determined by nonlinear regression, using GraphPad Prism version, 5.03.

Sequence of human ICMT (O60725 whole entry): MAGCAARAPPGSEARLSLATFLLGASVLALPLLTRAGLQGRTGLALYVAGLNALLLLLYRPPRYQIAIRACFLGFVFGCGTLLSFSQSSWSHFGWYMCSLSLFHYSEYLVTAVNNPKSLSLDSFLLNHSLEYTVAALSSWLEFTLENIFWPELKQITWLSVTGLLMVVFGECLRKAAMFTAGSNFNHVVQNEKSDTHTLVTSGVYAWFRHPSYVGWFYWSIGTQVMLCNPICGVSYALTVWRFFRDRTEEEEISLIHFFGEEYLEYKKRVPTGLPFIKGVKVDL

SMILES	IC50
N#Cc1ccc(OCCOc2cccc(-n3cncn3)c2)cc1 [Compound 1, 4-(2-(3-(1H-1,2,4-triazol-1-yl)phenoxy)ethoxy)benzonitrile]	560 nM
N#Cc1ccc(OCCOc2cccc(-c3cncs3)c2)cc1 [Compound 3, 4-(2-(3-(thiazol-5-yl)phenoxy)ethoxy)benzonitrile]	630 nM and 490 nM
Cc1nccn1-c1cccc(OCCOc2ccc(C#N)nc2)c1 [Compound 4, 5-(2-(3-(2-methyl-1H-imidazol-1-yl)phenoxy)ethoxy)picolinonitrile]	260 nM and 220 nM and 390 nM
Cc1nccn1-c1cccc(OCCOc2ccc(C#N)cc2F)c1 [Compound 6, 3-fluoro-4-(2-(3-(2-methyl-1H-imidazol-1-yl)phenoxy)ethoxy)benzonitrile]	2 nM and 1 nM and 2.4 nM
Cn1nccc1-c1cccc(OCCOc2ccc(C#N)cc2Cl)c1 [Compound 7, 3-chloro-4-(2-(3-(1-methyl-1H-pyrazol-5-yl)phenoxy)ethoxy)benzonitrile]	3 nM
COc1cc(C#N)ccc1OCCOc1cccc(-n2ccnc2C)c1 [Compound 8, 3-methoxy-4-(2-(3-(2-methyl-1H-imidazol-1-yl)phenoxy)ethoxy)benzonitrile]	0.2 nM and 0.36 nM
N#Cc1ccc(OCCOc2cccc(-n3ccnc3C3CC3)c2)c(Cl)c1 [Compound 9, 3-chloro-4-(2-(3-(2-cyclopropyl-1H-imidazol-1-yl)phenoxy)ethoxy)benzonitrile]	0.1 nM and 0.18 nM
Cc1nccn1-c1cccc(OCCOc2ccc(C#N)cn2)c1 [Compound 10, 6-(2-(3-(2-methyl-1H-imidazol-1-yl)phenoxy)ethoxy)nicotinonitrile]	80 nM
N#Cc1ccc(OCCOc2cccc(-c3cncs3)c2)c(Cl)c1 [Compound 11, 3-chloro-4-(2-(3-(thiazol-5-yl)phenoxy)ethoxy)benzonitrile]	20 nM
N#Cc1ccc(OCCOc2cccc(-c3cncs3)c2)c(F)c1 [Compound 12, 3-fluoro-4-(2-(3-(thiazol-5-yl)phenoxy)ethoxy)benzonitrile]	210 nM
Cc1ccc(OCCOc2cccc(-n3ccnc3C)c2)c(C#N)c1 [Compound 13, 5-methyl-2-(2-(3-(2-methyl-1H-imidazol-1-yl)phenoxy)ethoxy)benzonitrile]	11 nM
Cn1nccc1-c1cccc(OCCOc2ccc(C#N)cc2F)c1 [Compound 14, 3-fluoro-4-(2-(3-(1-methyl-1H-pyrazol-5-yl)phenoxy)ethoxy)benzonitrile]	15 nM
COc1cc(C#N)ccc1OCCOc1cccc(-c2ccnn2C)c1 [Compound 15, 3-methoxy-4-(2-(3-(1-methyl-1H-pyrazol-5-yl)phenoxy)ethoxy)benzonitrile]	1.1 nM and 0.9 nM
COc1cc(C#N)ccc1OCCOc1cccc(-c2cncs2)c1 [Compound 16, 3-methoxy-4-(2-(3-(thiazol-5-yl)phenoxy)ethoxy)benzonitrile]	8 nM and 11 nM
N#Cc1ccc(OCCOc2cccc(-n3ccnc3C3CC3)c2)c(F)c1 [Compound 17, 4-(2-(3-(2-cyclopropyl-1H-imidazol-1-yl)phenoxy)ethoxy)-3-fluorobenzonitrile]	16 nM
Cc1ccc(OCCOc2cccc(-c3ccnn3C)c2)c(C#N)c1 [Compound 18, 5-methyl-2-(2-(3-(1-methyl-1H-pyrazol-5-yl)phenoxy)ethoxy)benzonitrile]	3 nM
COc1cc(C#N)ccc1OCCOc1cccc(-n2ccnc2C2CC2)c1 [Compound 19, 4-(2-(3-(2-cyclopropyl-1H-imidazol-1-yl)phenoxy)ethoxy)-3-methoxybenzonitrile]	4.5 nM

SMILES	IC50
N#Cc1ccc(OCCOc2cccc(-n3ccnc3C3CC3)c2)cc1 [Compound 20, 4-(2-(3-(2-cyclopropyl-1H-imidazol-1-yl)phenoxy)ethoxy)benzonitrile]	0.17 nM and 0.16 nM
N#Cc1ccc(OCCOc2cccc(-n3cnnc3)c2)cc1 [Compound 21, 4-(2-(3-(4H-1,2,4-triazol-4-yl)phenoxy)ethoxy)benzonitrile]	298 nM
Cc1nccn1-c1cccc(OC(C)COc2ccc(C#N)cc2Cl)c1 (stereo not shown) [Compound 22, 3-chloro-4-(2-(3-(2-methyl-1H-imidazol-1-yl)phenoxy)propoxy)benzonitrile]	3 nM
Cc1nccn1-c1cccc(OC(C)COc2ccc(C#N)cc2F)c1 (stereo not shown) [Compound 23, 3-fluoro-4-(2-(3-(2-methyl-1H-imidazol-1-yl)phenoxy)propoxy)benzonitrile]	61 nM
Cc1nccn1-c1cc(OCCOc2ccc(C#N)cc2Cl)ccn1 [Compound 24, 3-chloro-4-(2-((2-(2-methyl-1H-imidazol-1-yl)pyridin-4-yl)oxy)ethoxy)benzonitrile]	1 nM
Cc1nccn1-c1cccc(OCC(C)Oc2ccc(C#N)cc2F)c1 (stereo not shown) [Compound 25, 3-fluoro-4-((1-(3-(2-methyl-1H-imidazol-1-yl)phenoxy)propan-2-yl)oxy)benzonitrile]	23 nM
C#Cc1ccc(OCCOc2cccc(-n3ccnc3C)c2)cc1 [Compound 26, 1-(3-(2-(4-ethynylphenoxy)ethoxy)phenyl)-2-methyl-1H-imidazole]	69 nM
Cc1cc(F)ccc1OCCOc1cccc(-c2ccnn2C)c1 [Compound 27, 5-(3-(2-(4-fluoro-2-methylphenoxy)ethoxy)phenyl)-1-methyl-1H-pyrazole]	290 nM
CC(COc1cccc(-n2ccnc2C2CC2)c1)Oc1ccc(C#N)cc1F (stereo not shown) [Compound 28, 4-((1-(3-(2-cyclopropyl-1H-imidazol-1-yl)phenoxy)propan-2-yl)oxy)-3-fluorobenzonitrile]	1.6 nM
COc1cc(C#N)ccc1OC(C)COc1cccc(-n2ccnc2C)c1 (stereo not shown) [Compound 29, 3-methoxy-4-((1-(3-(2-methyl-1H-imidazol-1-yl)phenoxy)propan-2-yl)oxy)benzonitrile]	0.08 nM
Cc1cc(C#N)ccc1OC(C)COc1cccc(-c2ccnn2C)c1 (stereo not shown) [Compound 30, 3-methyl-4-((1-(3-(1-methyl-1H-pyrazol-5-yl)phenoxy)propan-2-yl)oxy)benzonitrile]	1.6 nM
COc1cc(C#N)ccc1OC(C)COc1cccc(-c2ccnn2C)c1 (stereo not shown) [Compound 31, 3-methoxy-4-((1-(3-(1-methyl-1H-pyrazol-5-yl)phenoxy)propan-2-yl)oxy)benzonitrile]	1.2 nM
Cc1nccn1-c1cccc(O[C@H](C)COc2ccc(C#N)cc2Cl)c1 [Compound 32, (R)-3-chloro-4-(2-(3-(2-methyl-1H-imidazol-1-yl)phenoxy)propoxy)benzonitrile]	200 nM
Cc1nccn1-c1cccc(O[C@@H](C)COc2ccc(C#N)cc2Cl)c1 [Compound 33, (S)-3-chloro-4-(2-(3-(2-methyl-1H-imidazol-1-yl)phenoxy)propoxy)benzonitrile]	1.5 nM
Cc1nccn1-c1cccc(O[C@H](C)COc2ccc(C#N)cc2F)c1 [Compound 34, (R)-3-fluoro-4-(2-(3-(2-methyl-1H-imidazol-1-yl)phenoxy)propoxy)benzonitrile]	1470 nM
Cc1nccn1-c1cccc(O[C@@H](C)COc2ccc(C#N)cc2F)c1 [Compound 35, (S)-3-fluoro-4-(2-(3-(2-methyl-1H-imidazol-1-yl)phenoxy)propoxy)benzonitrile]	3.6 nM
Cc1nccn1-c1cccc(OCCOc2ccc(C#N)cc2OC(F)(F)F)c1 [Compound 36, 4-(2-(3-(2-methyl-1H-imidazol-1-yl)phenoxy)ethoxy)-3-(trifluoromethoxy)benzonitrile]	140 nM

Reference: patent publication US11834430B2, “Compounds useful as inhibitors of isoprenylcysteine carboxyl methyltransferase” (AGENCY FOR SCIENCE, TECHNOLOGY AND RESEARCH, priority 2017, dated 2023)
